BindingDB's records for doi:10.1021/jm030061i (University of Connecticut, 2003)

Tests used:
[1] = target: hypoxanthine phosphoribosyltransferase (Salmonella typhimurium); assay: Kinetic inhibition constant of compound with bacterial Hypoxanthine Phosphoribosyltransferase (HPRT)
[2] = target: hypoxanthine phosphoribosyltransferase (Trypanosoma cruzi); assay: Kinetic inhibition constant of compound with Trypanosoma cruzi Hypoxanthine Phosphoribosyltransferase (HPRT)

Row | Ki [1] | SMILES | Ki [2]
1 | > 25000 nM | O=C(Nc1cc2c3ccccc3ccc2c2ccccc12)C(Cl)Cl [2,2-Dichloro-N-chrysen-6-yl-acetamide] | 500 nM
2 |  | Fc1cc2c3ccccc3ccc2c2ccccc12 [6-Fluoro-chrysene] | 2800 nM
3 |  | O=[N+]([O-])c1cc2c3ccccc3ccc2c2ccccc12 [6-Nitro-chrysene] | 6700 nM
4 |  | Nc1cc2c3ccccc3ccc2c2ccccc12 [Chrysen-6-ylamine] | 600 nM
